Series [1] deals with T1, wild-type (wt) DHFR from Plasmodium falciparum (Plasmodium falciparum, UniProt P13922, N108S/R59C).
T1 construct: The Dihydrofolate Reductase Domain of Plasmodium falciparum Thymidylate Synthase-Dihydrofolate Reductase; made in house
Description: Inhibition of wild-type pfDHFR (spectrophotometric, Ki).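 Further: Affinity-purified enzyme, initial reaction rates measured across a range of inhibitor concentrations, Ki obtained by nonlinear least-squares fitting.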 Format: biochemical. The note with it: Ki(wt) nM.
Description: (§1) For determination of the Ki values of a number of synthesized analogues, the assay reactions were initiated with affinity-purified enzyme (^˜0.005-0.01 U ml^−1), and the initial velocities in the presence of varying concentrations of inhibitors were analysed by non-linear least square fit using Kaleidagraph™ software.

Series [2] addresses T2, A16V.S108T mutant (mut) of DHFR from Plasmodium falciparum (Plasmodium falciparum, UniProt A7UD81, A16V/S108T).
T2 construct: The Dihydrofolate Reductase Domain of Plasmodium falciparum Thymidylate Synthase-Dihydrofolate Reductase; made in house
Description: biochemical.
Description: as §1

Series [3] concerns A16V.S108T mutant (mut) of DHFR from Plasmodium falciparum. Description: biochemical. As to conditions: resistance factor.
Description: as §1
The subject of series [4] is wild-type (TM4/8.2) strain of P. falciparum. Description: microbe, parasite or virus in culture. The class given is cell-based, Plasmodium falciparum. The note with it: Plasmodium falciparum; wild-type strain TM4/8.2. The essentials:
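Parasitized erythrocytes (1.5% cell suspension, 1-2% parasitemia) incubated with compound (0.1% DMSO final) at 37° C in 3% CO2 for 24 h, then pulsed with 0.25 μCi [3H]-hypoxanthine for a further 18-24 h. Parasite DNA harvested onto glass filters; incorporated radioactivity counted by liquid scintillation.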

The target in series [5] is T3, DHFR-TS from Trypanosoma cruzi (Trypanosoma cruzi, UniProt Q27793).
T3 construct: pET 11c with the insertion of the complete ORF of the gene tc-dhfrts; made in house; host or cells: E. coli BL21 (DE3)
Description: Inhibition of T. cruzi DHFR-TS (I50-derived Ki).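 Further: enzymes were recombinant T. cruzi DHFR-TS and human DHFR, both expressed in E. coli and purified on a methotrexate affinity column, with dihydrofolate and NADPH as substrates.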 The class given is biochemical.
Description: DHFR activity was measured spectrophotometrically by monitoring the decrease in absorbance at 340 mm.
Inhibition of dihydrofolate reductases by 1,2-dihydro-1,3,5 triazines was analysed with T. cruzi and human DHFR.
DHFR assays contained 30 mM dihydrofolate, 0.1 mM NADPH, 50 mM TES buffer pH 7, 75 mM 2-mercaptoethanol and specified amounts of inhibitors. The reaction was initiated by addition of 2.8 or 2.3 units of T. cruzi and human, respectively, and monitored at 340 nm.
Selective inhibition of dihydrofolate reductase by 1,2-dihydro-1,3,5-triazines was analysed with T. cruzi and human DHFR. DHFR assays contained 30 μM dihydrofolate, 0.1 mM NADPH, 50 mM TES buffer pH 7, 75 mM β-mercaptoethanol and specified amounts of inhibitors. The reaction was initiated by addition of 2.8 or 2.3 units of T. cruzi and human enzyme, respectively, and monitored at 340 nm.
KiI 50=[I]0.5/((1+[S])/Km)

Series [6] addresses T4, human DHFR (Homo sapiens, UniProt P00374).
T4 construct: made in house; host or cells: E. coli M15
T4 sequence (P00374 1-187): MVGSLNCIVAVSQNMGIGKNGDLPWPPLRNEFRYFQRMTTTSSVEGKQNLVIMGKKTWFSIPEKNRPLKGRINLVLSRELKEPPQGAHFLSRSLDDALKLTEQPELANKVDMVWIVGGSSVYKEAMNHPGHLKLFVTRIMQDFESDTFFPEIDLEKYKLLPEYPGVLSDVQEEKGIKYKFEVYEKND
Description: Inhibition of human DHFR (I50-derived Ki).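 Further: recombinant human DHFR expressed in E. coli and purified by methotrexate affinity chromatography, enzyme activity followed spectrophotometrically.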 The class given is biochemical.

For series [7], the target named is human DHFR. Description: Inhibition of human DHFR (I50-derived Ki).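 Further: recombinant human DHFR expressed in E. coli and purified by methotrexate affinity chromatography, enzyme activity followed spectrophotometrically.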 Format: biochemical.

Structures are written as SMILES.

T3 sequence (Q27793 whole entry): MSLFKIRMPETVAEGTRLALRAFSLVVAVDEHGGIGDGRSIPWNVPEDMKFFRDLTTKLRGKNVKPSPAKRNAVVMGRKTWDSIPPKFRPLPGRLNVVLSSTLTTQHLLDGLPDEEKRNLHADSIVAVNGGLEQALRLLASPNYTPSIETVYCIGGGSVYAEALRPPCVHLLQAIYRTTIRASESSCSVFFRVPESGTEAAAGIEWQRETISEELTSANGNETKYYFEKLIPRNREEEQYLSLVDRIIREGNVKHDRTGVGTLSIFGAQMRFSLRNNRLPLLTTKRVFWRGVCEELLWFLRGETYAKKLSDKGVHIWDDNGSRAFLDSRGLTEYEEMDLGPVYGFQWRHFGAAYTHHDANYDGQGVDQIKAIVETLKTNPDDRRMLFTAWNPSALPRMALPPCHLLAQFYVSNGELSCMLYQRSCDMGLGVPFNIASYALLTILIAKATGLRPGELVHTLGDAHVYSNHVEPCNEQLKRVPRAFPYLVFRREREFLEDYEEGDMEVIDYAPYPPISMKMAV
T1 sequence (P13922 10-228 R59C/N108S): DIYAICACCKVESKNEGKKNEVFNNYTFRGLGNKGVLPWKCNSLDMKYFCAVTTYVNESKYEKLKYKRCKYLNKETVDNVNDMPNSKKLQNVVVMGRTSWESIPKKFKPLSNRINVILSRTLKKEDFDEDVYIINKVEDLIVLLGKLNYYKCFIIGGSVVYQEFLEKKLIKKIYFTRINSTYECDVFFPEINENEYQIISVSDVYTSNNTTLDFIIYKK
T2 sequence (A7UD81 1-231 A16V/S108T): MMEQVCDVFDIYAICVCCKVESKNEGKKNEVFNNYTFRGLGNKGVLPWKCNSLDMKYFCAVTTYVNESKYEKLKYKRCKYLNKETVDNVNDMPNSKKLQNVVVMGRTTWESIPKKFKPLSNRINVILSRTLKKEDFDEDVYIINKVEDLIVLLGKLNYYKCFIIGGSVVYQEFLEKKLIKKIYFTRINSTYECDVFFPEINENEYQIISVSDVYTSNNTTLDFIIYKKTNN

For orientation: Ki means a dissociation constant, usually derived from enzyme kinetics or from competition with a known ligand. A low value points to a stronger hold on the target. Usually IC50 stands for the concentration that gives 50% inhibition. Low values mean inhibition by little substance, high ones a need for much substance. A word on the melting point: it is the temperature of the solid-liquid transition. On to `NC1=NC(c2cccc(Oc3ccccc3)c2)N(c2ccc(OCc3ccccc3)cc2)C(N)=N1` (stereo not drawn) [1-p-Benzyloxyphenyl-2-m-phenoxyphenyl-4,6-diamino-1,2-dihydro-1,3,5-triazine], for which the melting point fell in the range of 208 to 210 °C. Also, affinity in series [1] was put at a Ki of 0.9 ± 0.2 nM. In series [2], this compound displayed a Ki of 4.5 ± 0.6 nM. Further, in series [3], the “Ki(mut)/Ki(wt)” value amounted to 5. The same compound registered an IC50 in series [4] of 255 nM. In series [5], this compound returned a Ki of 3 nM. In addition, the Selectivity in series [5] (human Ki / T. cruzi Ki) was determined as 3.3. On human DHFR [6] (Human Ki (I50)(nM), human DHFR), the affinity, expressed as Ki, was 10 nM. Moreover, the “inhibitory activity against human DHFR” value against human DHFR [6] (compared with methotrexate) was “comparable to that of methotrexate”. Moreover, at human DHFR [7], the “Ki (human)/Ki (P. falc. mut)” value is on record as 2.2, the “Ki (human)/Ki (P. falc. wt)” value was 11 and the “Ki (human)/Ki (T. cruzi)” value is recorded as 3.33.

For the origin of these results see patent US20030203908A1, “Dihydrofolate reductase inhibitors” (priority 2000, published 2003).
